Columns and labels:
Assay in all cases: saturation binding of fluorescent ligand, flow cytometry, permeabilized yeast
Type in all cases: cell-based
Settings in all cases: PBS, 1% DMSO, 22 °C, 1 h; apparent affinity; labelled compound (fluorescent ligand itself); no G protein
[1] = biological target: T1, A2aR (Homo sapiens, UniProt P29274, P313S/P354A)
T1 construct: gene ADORA2A; full-length receptor with C-terminus (positions to 412), N-terminal synthetic pre-pro leader, no eGFP; pYES2 (subcloned from pITy-MC-His10), permeabilized S. cerevisiae BY4741
T1 sequence (P29274 whole entry P313S/P354A): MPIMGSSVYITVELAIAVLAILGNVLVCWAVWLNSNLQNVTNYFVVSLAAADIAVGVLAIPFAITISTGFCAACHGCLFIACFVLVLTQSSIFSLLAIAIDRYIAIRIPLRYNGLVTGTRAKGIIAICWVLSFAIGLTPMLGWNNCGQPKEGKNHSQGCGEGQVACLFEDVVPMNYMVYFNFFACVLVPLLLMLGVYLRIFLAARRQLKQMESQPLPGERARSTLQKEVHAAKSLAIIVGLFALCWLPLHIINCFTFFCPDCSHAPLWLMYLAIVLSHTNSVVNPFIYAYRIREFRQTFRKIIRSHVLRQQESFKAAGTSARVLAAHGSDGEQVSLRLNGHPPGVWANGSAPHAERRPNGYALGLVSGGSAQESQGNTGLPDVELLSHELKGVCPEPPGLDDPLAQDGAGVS
Description: (§1) saturation binding of fluorescent ligand, flow cytometry, permeabilized yeast on A2aR

[2] = biological target: T2, A2aR (Homo sapiens, UniProt P29274, N34K)
T2 construct: gene ADORA2A; full-length receptor with C-terminus (positions to 412), N-terminal synthetic pre-pro leader, no eGFP; pYES2 (subcloned from pITy-MC-His10), permeabilized S. cerevisiae BY4741
T2 sequence (P29274 whole entry N34K): as the sequence (P29274 whole entry P313S/P354A) above, with N34K, S313P, A354P counted along it
Description: as §1

[3] = biological target: T3, A2aR (Homo sapiens, UniProt P29274)
T3 construct: gene ADORA2A; full-length receptor with C-terminus (positions to 412), N-terminal synthetic pre-pro leader, no eGFP; pYES2 (subcloned from pITy-MC-His10), permeabilized S. cerevisiae BY4741
T3 sequence (P29274 whole entry): as the sequence (P29274 whole entry P313S/P354A) above, with S313P, A354P counted along it
Description: as §1

With CA200623 the “logEC50 ± SE^c” value [1] was −8.90 ± 0.03, the “logEC50 ± SE^c” value [2] was −7.78 ± 0.04 and the “logEC50 ± SE^c” value [3] was −8.01 ± 0.06.
